Data published in PMC5428567, “Pentameric ligand-gated ion channels exhibit distinct transmembrane domain archetypes for folding/expression and function” (Scientific Reports, 2017).

Legend:
ELIC G270A = target: T1, ELIC G270A (Dickeya chrysanthemi, UniProt P0C7B7, G270A); experiment: TEVC cysteamine-induced current, ELIC G270A; type: cell-based; details: Xenopus laevis oocytes; ±SD; n=8
T1 construct: expressed in transfected cells; host or cells: Xenopus laevis oocytes injected with cRNA (pTLN plasmid)
Description: (§1) To examine how different physical interactions at the M4-M1/M3 interface in both GLIC and ELIC (Fig. 1) influence function, we mutated each residue to Ala, and characterized how each mutation influenced agonist-induced channel gating using two-electrode voltage clamp electrophysiology. Both GLIC and ELIC are cation-selective ion channels that transiently gate open in response to agonist binding, although GLIC responds to protons while ELIC responds to primary amines, such as cysteamine, [34].
(§2) Stage V–VI oocytes were collected as previously described, injected with cRNA, and allowed to incubate one to four days at 16 °C in ND96 + buffer (5 mM HEPES, 96 mM NaCl, 2 mM KCl, 1 mM MgCl2, 1 mM CaCl2, and 2 mM Pyruvate). Whole cell currents were recorded using a two-electrode voltage clamp apparatus (OC-725C oocyte clamp; Holliston, MA). For GLIC, whole cell currents were recorded from injected oocytes (3–20 ng cRNA) immersed in MES buffer (140 mM NaCl, 2.8 mM KCl, 2 mM MgCl2, and 10 mM MES). Currents through the plasma membrane in response to pH jumps (pH 7.3 down to the indicated pH values) were measured with the transmembrane voltage clamped at voltages between −20 mV and −40 mV depending on the level of expression, typically −20 mV. […]

ELIC F222A = target: T2, ELIC F222A (Dickeya chrysanthemi, UniProt P0C7B7, F222A); experiment: TEVC cysteamine-induced current, ELIC F222A; type: cell-based; details: Xenopus laevis oocytes
T2 construct: expressed in transfected cells; host or cells: Xenopus laevis oocytes injected with cRNA
Description: as §1
Stage V–VI oocytes were collected as previously described, injected with cRNA, and allowed to incubate one to four days at 16 °C in ND96 + buffer (5 mM HEPES, 96 mM NaCl, 2 mM KCl, 1 mM MgCl2, 1 mM CaCl2, and 2 mM Pyruvate). Whole cell currents were recorded using a two-electrode voltage clamp apparatus (OC-725C oocyte clamp; Holliston, MA). For GLIC, whole cell currents were recorded from injected oocytes (3–20 ng cRNA) immersed in MES buffer (140 mM NaCl, 2.8 mM KCl, 2 mM MgCl2, and 10 mM MES). Currents through the plasma membrane in response to pH jumps (pH 7.3 down to the indicated pH values) were measured with the transmembrane voltage clamped at voltages between −20 mV and −40 mV depending on the level of expression, typically −20 mV. For ELIC, whole cell currents were recorded from injected oocytes (0.1–10 ng cRNA) immersed in HEPES buffer (150 mM NaCl, 0.5 mM BaCl2, and 10 mM HEPES, pH 7.0). In most cases, currents through the plasma membrane in response to cysteamine concentration jumps (from 0 mM up to the indicated values) were measured with the transmembrane voltage clamped at −30 mV.
Dose responses for each mutant were acquired from at least two different batches of oocytes. Each individual dose-response experiment was fit with a variable slope sigmoidal dose-response and the individual EC50 values from each experiment averaged to give the reported EC50 values ± standard deviation.

ELIC W223A + R300A = target: T3, ELIC W223A + R300A (Dickeya chrysanthemi, UniProt P0C7B7, R300A/W223A); experiment: TEVC cysteamine-induced current, ELIC W223A + R300A; type: cell-based; details: Xenopus laevis oocytes; ±SD; n=8
T3 construct: expressed in transfected cells; host or cells: Xenopus laevis oocytes injected with cRNA (pTLN plasmid)
Description: as §1, §2

ELIC W219A + F303A = target: T4, ELIC W219A + F303A (Dickeya chrysanthemi, UniProt P0C7B7, F303A/W219A); experiment: TEVC cysteamine-induced current, ELIC W219A + F303A; type: cell-based; details: Xenopus laevis oocytes; ±SD; n=8
T4 construct: expressed in transfected cells; host or cells: Xenopus laevis oocytes injected with cRNA (pTLN plasmid)
Description: as §1, §2

ELIC P304A = target: T5, ELIC P304A (Dickeya chrysanthemi, UniProt P0C7B7, P304A); experiment: TEVC cysteamine-induced current, ELIC P304A; type: cell-based; details: Xenopus laevis oocytes; EC50 values were not obtained
T5 construct: expressed in transfected cells; host or cells: Xenopus laevis oocytes injected with cRNA (pTLN plasmid)
Description: as §1, §2

ELIC W219A = target: T6, ELIC W219A (Dickeya chrysanthemi, UniProt P0C7B7, W219A); experiment: TEVC cysteamine-induced current, ELIC W219A; type: cell-based; details: Xenopus laevis oocytes; ±SD; n=8
T6 construct: expressed in transfected cells; host or cells: Xenopus laevis oocytes injected with cRNA
Description: as §1, §2

ELIC C299A = test system: ELIC C299A; design: method as in Henault et al.[9], [18], [29]; details: Xenopus laevis oocytes; ±SD; n=9; ref Henault et al.[9], [18], [29]; cited from earlier work
ELIC W223A = target: T7, ELIC W223A (Dickeya chrysanthemi, UniProt P0C7B7, W223A); experiment: TEVC cysteamine-induced current, ELIC W223A; type: cell-based; details: Xenopus laevis oocytes; ±SD; n=8
T7 construct: expressed in transfected cells; host or cells: Xenopus laevis oocytes injected with cRNA
Description: as §1, §2

ELIC F222A + C299A = target: T8, ELIC F222A + C299A (Dickeya chrysanthemi, UniProt P0C7B7, C299A/F222A); experiment: TEVC cysteamine-induced current, ELIC F222A + C299A; type: cell-based; details: Xenopus laevis oocytes; ±SD; n=8
T8 construct: expressed in transfected cells; host or cells: Xenopus laevis oocytes injected with cRNA (pTLN plasmid)
Description: as §1, §2

ELIC W219A + F307A = target: T9, ELIC W219A + F307A (Dickeya chrysanthemi, UniProt P0C7B7, F307A/W219A); experiment: TEVC cysteamine-induced current, ELIC W219A + F307A; type: cell-based; details: Xenopus laevis oocytes; ±SD; n=8
T9 construct: expressed in transfected cells; host or cells: Xenopus laevis oocytes injected with cRNA (pTLN plasmid)
Description: as §1, §2

ELIC G268A = target: T10, ELIC G268A (Dickeya chrysanthemi, UniProt P0C7B7, G268A); experiment: TEVC cysteamine-induced current, ELIC G268A; type: cell-based; details: Xenopus laevis oocytes; ±SD; n=8
T10 construct: expressed in transfected cells; host or cells: Xenopus laevis oocytes injected with cRNA (pTLN plasmid)
Description: as §1, §2

ELIC L209A = target: T11, ELIC L209A (Dickeya chrysanthemi, UniProt P0C7B7, L209A); experiment: TEVC cysteamine-induced current, ELIC L209A; type: cell-based; details: Xenopus laevis oocytes; ±SD; n=8
T11 construct: expressed in transfected cells; host or cells: Xenopus laevis oocytes injected with cRNA
Description: as §1, §2

ELIC F281A = target: T12, ELIC F281A (Dickeya chrysanthemi, UniProt P0C7B7, F281A); experiment: TEVC cysteamine-induced current, ELIC F281A; type: cell-based; details: Xenopus laevis oocytes; ±SD; n=8
T12 construct: expressed in transfected cells; host or cells: Xenopus laevis oocytes injected with cRNA
Description: as §1, §2

ELIC L314A = test system: ELIC L314A; design: method as in Henault et al.[9], [18], [29]; details: Xenopus laevis oocytes; ±SD; n=8; ref Henault et al.[9], [18], [29]; cited from earlier work
ELIC M264A = target: T13, ELIC M264A (Dickeya chrysanthemi, UniProt P0C7B7, M264A); experiment: TEVC cysteamine-induced current, ELIC M264A; type: cell-based; details: Xenopus laevis oocytes; ±SD; n=8
T13 construct: expressed in transfected cells; host or cells: Xenopus laevis oocytes injected with cRNA
Description: as §1, §2

ELIC L213A = target: T14, ELIC L213A (Dickeya chrysanthemi, UniProt P0C7B7, L213A); experiment: TEVC cysteamine-induced current, ELIC L213A; type: cell-based; details: Xenopus laevis oocytes; ±SD; n=8
T14 construct: expressed in transfected cells; host or cells: Xenopus laevis oocytes injected with cRNA
Description: as §1, §2

ELIC G318A = test system: ELIC G318A; design: method as in Henault et al.[9], [18], [29]; details: Xenopus laevis oocytes; ±SD; n=10; ref Henault et al.[9], [18], [29]; cited from earlier work
ELIC S271A = target: T15, ELIC S271A (Dickeya chrysanthemi, UniProt P0C7B7, S271A); experiment: TEVC cysteamine-induced current, ELIC S271A; type: cell-based; details: Xenopus laevis oocytes; ±SD; n=8
T15 construct: expressed in transfected cells; host or cells: Xenopus laevis oocytes injected with cRNA
Description: as §1, §2

T2 sequence (P0C7B7 whole entry F222A): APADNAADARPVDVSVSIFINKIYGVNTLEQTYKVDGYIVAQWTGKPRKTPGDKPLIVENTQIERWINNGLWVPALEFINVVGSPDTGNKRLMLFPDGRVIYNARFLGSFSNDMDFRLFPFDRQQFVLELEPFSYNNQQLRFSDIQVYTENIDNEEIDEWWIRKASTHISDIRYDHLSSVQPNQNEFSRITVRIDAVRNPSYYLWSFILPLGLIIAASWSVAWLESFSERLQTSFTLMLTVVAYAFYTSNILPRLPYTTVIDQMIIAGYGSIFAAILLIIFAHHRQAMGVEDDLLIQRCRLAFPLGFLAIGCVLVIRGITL
T6 sequence (P0C7B7 whole entry W219A): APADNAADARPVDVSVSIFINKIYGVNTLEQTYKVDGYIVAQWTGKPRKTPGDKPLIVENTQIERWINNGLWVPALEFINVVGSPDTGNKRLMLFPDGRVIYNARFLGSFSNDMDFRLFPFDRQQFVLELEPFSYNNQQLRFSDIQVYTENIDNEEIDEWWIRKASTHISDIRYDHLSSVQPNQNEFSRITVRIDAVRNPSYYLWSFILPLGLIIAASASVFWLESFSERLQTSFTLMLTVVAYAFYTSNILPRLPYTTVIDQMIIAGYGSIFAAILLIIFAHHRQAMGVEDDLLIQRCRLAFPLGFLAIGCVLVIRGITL
T14 sequence (P0C7B7 whole entry L213A): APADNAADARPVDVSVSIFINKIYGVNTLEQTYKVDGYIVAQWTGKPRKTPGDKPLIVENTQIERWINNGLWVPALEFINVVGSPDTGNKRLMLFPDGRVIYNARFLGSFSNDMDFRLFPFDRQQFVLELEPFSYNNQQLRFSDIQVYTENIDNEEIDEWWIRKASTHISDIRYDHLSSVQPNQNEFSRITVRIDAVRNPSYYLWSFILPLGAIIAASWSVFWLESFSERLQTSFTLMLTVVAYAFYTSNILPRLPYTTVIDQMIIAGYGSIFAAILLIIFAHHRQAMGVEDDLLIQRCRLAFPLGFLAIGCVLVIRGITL
T8 sequence (P0C7B7 whole entry F222A/C299A): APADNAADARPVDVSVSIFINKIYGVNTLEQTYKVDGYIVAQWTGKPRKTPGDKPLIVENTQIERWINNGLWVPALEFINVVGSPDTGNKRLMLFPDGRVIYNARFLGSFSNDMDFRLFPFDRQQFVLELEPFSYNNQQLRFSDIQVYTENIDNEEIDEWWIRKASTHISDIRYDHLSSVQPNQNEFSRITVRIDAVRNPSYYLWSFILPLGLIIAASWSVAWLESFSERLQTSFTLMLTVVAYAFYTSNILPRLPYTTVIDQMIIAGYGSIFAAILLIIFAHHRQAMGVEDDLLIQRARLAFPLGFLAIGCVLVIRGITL
T11 sequence (P0C7B7 whole entry L209A): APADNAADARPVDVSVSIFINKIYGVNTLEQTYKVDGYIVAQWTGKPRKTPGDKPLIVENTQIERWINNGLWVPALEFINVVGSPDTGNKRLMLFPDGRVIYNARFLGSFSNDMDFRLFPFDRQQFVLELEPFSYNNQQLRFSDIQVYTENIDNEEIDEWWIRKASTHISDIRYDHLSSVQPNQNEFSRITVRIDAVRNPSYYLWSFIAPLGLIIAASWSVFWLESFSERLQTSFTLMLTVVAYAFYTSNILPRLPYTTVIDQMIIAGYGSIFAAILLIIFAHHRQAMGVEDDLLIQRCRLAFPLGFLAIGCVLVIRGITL
T3 sequence (P0C7B7 whole entry W223A/R300A): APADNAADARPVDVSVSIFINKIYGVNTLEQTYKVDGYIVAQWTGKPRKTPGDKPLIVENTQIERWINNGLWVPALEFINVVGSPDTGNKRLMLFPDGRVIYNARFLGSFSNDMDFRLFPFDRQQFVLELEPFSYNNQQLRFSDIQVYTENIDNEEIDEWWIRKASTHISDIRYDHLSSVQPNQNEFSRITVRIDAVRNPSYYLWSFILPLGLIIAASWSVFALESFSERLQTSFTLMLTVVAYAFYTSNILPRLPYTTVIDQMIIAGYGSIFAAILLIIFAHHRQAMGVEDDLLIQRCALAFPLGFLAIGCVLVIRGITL
T7 sequence (P0C7B7 whole entry W223A): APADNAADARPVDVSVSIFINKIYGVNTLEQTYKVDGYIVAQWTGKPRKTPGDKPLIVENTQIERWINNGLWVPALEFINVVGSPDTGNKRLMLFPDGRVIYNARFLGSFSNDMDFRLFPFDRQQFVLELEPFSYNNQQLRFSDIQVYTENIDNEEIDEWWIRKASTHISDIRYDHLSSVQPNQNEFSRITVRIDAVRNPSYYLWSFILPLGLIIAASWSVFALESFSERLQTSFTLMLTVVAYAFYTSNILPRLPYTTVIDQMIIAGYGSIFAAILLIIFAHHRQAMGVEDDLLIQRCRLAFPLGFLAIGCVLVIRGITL
T9 sequence (P0C7B7 whole entry W219A/F307A): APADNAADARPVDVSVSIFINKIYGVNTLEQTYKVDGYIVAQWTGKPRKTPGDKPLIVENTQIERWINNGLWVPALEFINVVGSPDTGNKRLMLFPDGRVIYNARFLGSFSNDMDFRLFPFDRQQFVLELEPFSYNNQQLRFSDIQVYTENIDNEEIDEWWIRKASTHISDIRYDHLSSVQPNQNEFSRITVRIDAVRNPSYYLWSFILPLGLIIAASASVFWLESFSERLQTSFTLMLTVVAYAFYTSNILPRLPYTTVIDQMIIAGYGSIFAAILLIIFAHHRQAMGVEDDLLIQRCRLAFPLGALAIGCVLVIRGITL
T13 sequence (P0C7B7 whole entry M264A): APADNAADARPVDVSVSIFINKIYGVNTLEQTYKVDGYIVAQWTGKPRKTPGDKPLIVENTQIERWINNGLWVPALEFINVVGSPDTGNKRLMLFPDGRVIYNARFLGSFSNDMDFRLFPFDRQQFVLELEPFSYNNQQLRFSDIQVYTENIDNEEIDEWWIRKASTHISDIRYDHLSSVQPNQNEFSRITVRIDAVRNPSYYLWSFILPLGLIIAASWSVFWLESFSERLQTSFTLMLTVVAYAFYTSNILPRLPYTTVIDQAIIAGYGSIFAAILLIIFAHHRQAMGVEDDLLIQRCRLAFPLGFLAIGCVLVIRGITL
T12 sequence (P0C7B7 whole entry F281A): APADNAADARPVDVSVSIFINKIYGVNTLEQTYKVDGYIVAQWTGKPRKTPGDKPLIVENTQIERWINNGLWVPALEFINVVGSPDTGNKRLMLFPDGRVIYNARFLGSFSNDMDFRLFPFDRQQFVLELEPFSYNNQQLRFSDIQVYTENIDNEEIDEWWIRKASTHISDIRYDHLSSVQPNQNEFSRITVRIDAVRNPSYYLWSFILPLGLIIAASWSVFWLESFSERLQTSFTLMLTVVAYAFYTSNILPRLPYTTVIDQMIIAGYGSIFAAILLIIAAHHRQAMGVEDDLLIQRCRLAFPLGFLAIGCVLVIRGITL
T10 sequence (P0C7B7 whole entry G268A): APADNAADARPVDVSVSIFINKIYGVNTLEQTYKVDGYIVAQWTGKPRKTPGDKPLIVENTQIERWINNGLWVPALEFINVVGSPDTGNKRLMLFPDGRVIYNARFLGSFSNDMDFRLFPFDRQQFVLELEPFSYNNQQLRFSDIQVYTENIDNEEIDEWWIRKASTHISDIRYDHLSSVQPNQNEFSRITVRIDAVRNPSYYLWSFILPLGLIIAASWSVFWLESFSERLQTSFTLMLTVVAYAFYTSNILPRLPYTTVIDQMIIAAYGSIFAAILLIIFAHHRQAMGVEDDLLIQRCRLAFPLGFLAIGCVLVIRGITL
T4 sequence (P0C7B7 whole entry W219A/F303A): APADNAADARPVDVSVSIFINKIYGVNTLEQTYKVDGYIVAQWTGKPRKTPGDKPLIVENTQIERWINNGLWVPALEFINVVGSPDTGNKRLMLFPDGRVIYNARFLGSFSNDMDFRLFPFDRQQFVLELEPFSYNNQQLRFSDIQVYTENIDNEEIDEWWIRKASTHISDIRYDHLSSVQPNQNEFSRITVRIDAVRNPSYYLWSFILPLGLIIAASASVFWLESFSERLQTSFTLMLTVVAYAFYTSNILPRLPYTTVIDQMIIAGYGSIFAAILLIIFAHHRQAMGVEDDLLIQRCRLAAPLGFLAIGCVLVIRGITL
T1 sequence (P0C7B7 whole entry G270A): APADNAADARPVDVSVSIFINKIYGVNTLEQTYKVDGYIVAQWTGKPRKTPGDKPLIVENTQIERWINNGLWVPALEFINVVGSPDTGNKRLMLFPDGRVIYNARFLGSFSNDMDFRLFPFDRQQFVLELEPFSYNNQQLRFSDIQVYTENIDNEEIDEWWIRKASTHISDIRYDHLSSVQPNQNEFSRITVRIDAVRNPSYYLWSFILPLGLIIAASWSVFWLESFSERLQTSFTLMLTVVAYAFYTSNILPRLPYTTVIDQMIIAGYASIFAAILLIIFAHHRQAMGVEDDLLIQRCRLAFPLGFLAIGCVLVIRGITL
T5 sequence (P0C7B7 whole entry P304A): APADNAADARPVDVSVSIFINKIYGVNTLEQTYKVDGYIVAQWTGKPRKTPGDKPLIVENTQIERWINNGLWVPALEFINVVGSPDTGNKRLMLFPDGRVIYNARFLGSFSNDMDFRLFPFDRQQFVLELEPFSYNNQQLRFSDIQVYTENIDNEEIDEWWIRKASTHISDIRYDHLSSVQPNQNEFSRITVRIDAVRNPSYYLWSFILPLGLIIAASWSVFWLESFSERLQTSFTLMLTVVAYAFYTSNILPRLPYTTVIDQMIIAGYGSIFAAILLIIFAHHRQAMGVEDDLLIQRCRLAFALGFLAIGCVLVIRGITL
T15 sequence (P0C7B7 whole entry S271A): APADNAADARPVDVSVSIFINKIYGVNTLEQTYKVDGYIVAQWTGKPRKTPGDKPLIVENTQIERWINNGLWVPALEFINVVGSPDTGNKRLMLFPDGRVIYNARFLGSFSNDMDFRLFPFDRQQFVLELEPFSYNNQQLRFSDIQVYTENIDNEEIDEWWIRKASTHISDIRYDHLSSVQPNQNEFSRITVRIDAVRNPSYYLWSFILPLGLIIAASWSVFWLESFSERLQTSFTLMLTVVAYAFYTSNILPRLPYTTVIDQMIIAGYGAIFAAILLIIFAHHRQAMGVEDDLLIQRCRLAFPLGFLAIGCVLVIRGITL

In the case of NCCS [cysteamine], the EC50 (ELIC G270A) is reported as 1020 ± 100 µM, the “−logEC50” value (ELIC G270A) is reported as 2.99 ± 0.04 and the “gain-of-function relative to WT ELIC” value (ELIC F222A; shift versus WT) is reported as 10 fold. The EC50 (ELIC F222A; ±SD, n=8) was 90 ± 30 µM, the “−logEC50” value (ELIC F222A; ±SD, n=8) was 4.05 ± 0.15 and the EC50 (ELIC W223A + R300A) was 800 ± 110 µM. For the same molecule, the “−logEC50” value (ELIC W223A + R300A) was 3.10 ± 0.05, the EC50 (ELIC W219A + F303A) was 550 ± 120 µM and the “−logEC50” value (ELIC W219A + F303A) was 3.26 ± 0.10. The desensitization kinetics (ELIC P304A) was “substantially altered desensitization kinetics”, the EC50 (ELIC W219A) was 910 ± 50 µM and the “−logEC50” value (ELIC W219A) was 3.04 ± 0.02. For the same molecule, the EC50 (ELIC C299A) was 560 ± 80 µM, the “−logEC50” value (ELIC C299A) was 3.25 ± 0.06 and the EC50 (ELIC W223A) was 1230 ± 60 µM. The “−logEC50” value (ELIC W223A) was 2.91 ± 0.02, the EC50 (ELIC F222A + C299A) was 100 ± 20 µM and the “−logEC50” value (ELIC F222A + C299A) was 4.00 ± 0.09. For the same molecule, the EC50 (ELIC W219A + F307A) was 450 ± 70 µM, the “−logEC50” value (ELIC W219A + F307A) was 3.35 ± 0.07 and the EC50 (ELIC G268A) was 1190 ± 140 µM. For the same molecule, the “−logEC50” value (ELIC G268A) was 2.92 ± 0.05, the EC50 (ELIC L209A) was 290 ± 50 µM and the “−logEC50” value (ELIC L209A) was 3.54 ± 0.08. For the same molecule, the EC50 (ELIC F281A) was 880 ± 50 µM, the “−logEC50” value (ELIC F281A) was 3.06 ± 0.02 and the EC50 (ELIC L314A) was 420 ± 50 µM. The “−logEC50” value (ELIC L314A) was 3.38 ± 0.05, the EC50 (ELIC M264A) was 1290 ± 120 µM and the “−logEC50” value (ELIC M264A) was 2.89 ± 0.04. For the same molecule, the EC50 (ELIC L213A) was 320 ± 20 µM, the “−logEC50” value (ELIC L213A) was 3.49 ± 0.03 and the EC50 (ELIC G318A) was 760 ± 130 µM. For the same molecule, the “−logEC50” value (ELIC G318A) was 3.12 ± 0.08 and the EC50 (ELIC S271A) was 820 ± 50 µM.
